The molecules below were run on HCV replicon (assay: Cell-Based HCV Replicon Assay). Conditions: Hepatitis C virus; HCV Replicon assay, EC90 given as numeric bound, Table VI; read-out: EC90.
Summary of the method: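 Replicon cells, 5000/well, treated 3 days with 10 serial 2-fold dilutions (top 25 μM to 1 μM) in 0.5% DMSO, 10% FBS. Replicon RNA measured by multiplex Taqman RT-PCR (NS5B amplicon, GAPDH control); EC50/EC90 = concentration giving ΔCT of 1/3.2 over baseline from sigmoid fit.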
`Cc1nc(NCC2(N(C)C)CCOCC2)nc(N[C@@H]2C[C@H](C(C)(C)O)[C@@H](O)[C@H]2O)c1-c1nc2c(C)nccc2s1` [Example 5282] gave an EC90 greater than 1000 nM.

Same assay, conditions: Hepatitis C virus; HCV Replicon assay, EC90 range, Table VI; read-out: EC90
Molecule `CSCCNc1nc(C)c(-c2nc3c(C)nccc3s2)c(N[C@@H]2C[C@H](C(C)(C)O)[C@@H](O)[C@H]2O)n1` [Example 5241] has an EC90 of less than 500 nM.
Molecule `Cc1nc(N)nc(N[C@@H]2C[C@H](C(C)(C)O)[C@@H](O)[C@H]2O)c1-c1nc2c(C)nccc2s1` [Example 5242] has an EC90 of less than 500 nM.
`CCOCCNc1nc(C)c(-c2nc3c(C)nccc3s2)c(N[C@@H]2C[C@H](C(O)(COC)COC)[C@@H](O)[C@H]2O)n1` [Example 5243] showed an EC90 of less than 500 nM.
`COC[C@@H](C)Nc1nc(C)c(-c2nc3c(C)nccc3s2)c(N[C@@H]2C[C@H](C(O)(COC)COC)[C@@H](O)[C@H]2O)n1` [Example 5244] was tested, and the EC90 was less than 500 nM.
`COCC(O)(COC)[C@H]1C[C@@H](Nc2nc(NC[C@@H](C)OC)nc(C)c2-c2nc3c(C)nccc3s2)[C@H](O)[C@@H]1O` [Example 5245] gave an EC90 of less than 500 nM.
In the case of `COCC(O)(COC)[C@H]1C[C@@H](Nc2nc(NCC3CC3)nc(C)c2-c2nc3c(C)nccc3s2)[C@H](O)[C@@H]1O` [Example 5246], the EC90 is reported as less than 500 nM.
With `COCC(O)(COC)[C@H]1C[C@@H](Nc2nc(NCc3c(F)cc(F)cc3F)nc(C)c2-c2nc3c(C)nccc3s2)[C@H](O)[C@@H]1O` [Example 5247] the EC90 was less than 500 nM.
Molecule `CCC(O)(CC)[C@H]1C[C@@H](Nc2nc(NCCSC(C)(C)C)nc(C)c2-c2nc3c(C)nccc3s2)[C@H](O)[C@@H]1O` [Example 5248] has an EC90 of less than 500 nM.
Work on `Cc1nc(NCCS(C)(=O)=O)nc(N[C@@H]2C[C@H](C(C)(C)O)[C@@H](O)[C@H]2O)c1-c1nc2c(C)nccc2s1` [Example 5249] yielded an EC90 of 500 to 5000 nM.
`Cc1nc(NCCS(=O)(=O)C(C)(C)C)nc(N[C@@H]2C[C@H](C(C)(C)O)[C@@H](O)[C@H]2O)c1-c1nc2c(C)nccc2s1` [Example 5250] was tested, and the EC90 was less than 500 nM.
With `CSCC[C@@H](CO)Nc1nc(C)c(-c2nc3c(C)nccc3s2)c(N[C@@H]2C[C@H](C(C)(C)O)[C@@H](O)[C@H]2O)n1` [Example 5251] the EC90 was less than 500 nM.
Molecule `Cc1nc(NCc2cn(C)cn2)nc(N[C@@H]2C[C@H](C(C)(C)O)[C@@H](O)[C@H]2O)c1-c1nc2c(C)nccc2s1` [Example 5252] has an EC90 of less than 500 nM.
`CCSC[C@@H](C)Nc1nc(C)c(-c2nc3c(C)nccc3s2)c(N[C@@H]2C[C@H](C(C)(C)O)[C@@H](O)[C@H]2O)n1` [Example 5253] gave an EC90 of less than 500 nM.
With `Cc1nc(N[C@H](C)CSC(C)(C)C)nc(N[C@@H]2C[C@H](C(C)(C)O)[C@@H](O)[C@H]2O)c1-c1nc2c(C)nccc2s1` [Example 5254] the EC90 was less than 500 nM.
For `CCS[C@H](C)CNc1nc(C)c(-c2nc3c(C)nccc3s2)c(N[C@@H]2C[C@H](C(C)(C)O)[C@@H](O)[C@H]2O)n1` [Example 5255], the EC90 was less than 500 nM.
For `Cc1nc(N[C@H](C)COC(C)C)nc(N[C@@H]2C[C@H](C(C)(C)O)[C@@H](O)[C@H]2O)c1-c1nc2c(C)nccc2s1` [Example 5256], the EC90 was less than 500 nM.
Work on `COC1(CNc2nc(C)c(-c3nc4c(C)nccc4s3)c(N[C@@H]3C[C@H](C(C)(C)O)[C@@H](O)[C@H]3O)n2)CC1` [Example 5257] yielded an EC90 of less than 500 nM.
`Cc1nc(N)nc(N[C@@H]2C[C@H](CO)[C@@H](O)[C@H]2O)c1-c1nc2c(C3CC3)nccc2s1` [Example 5258] was tested, and the EC90 was less than 500 nM.
`Cc1nc(NC[C@@H](C)OC(C)C)nc(N[C@@H]2C[C@H](C(C)(C)O)[C@@H](O)[C@H]2O)c1-c1nc2c(C)nccc2s1` [Example 5259] was tested, and the EC90 was less than 500 nM.
`C#CCCNc1nc(C)c(-c2nc3c(C)nccc3s2)c(N[C@@H]2C[C@H](C(C)(C)O)[C@@H](O)[C@H]2O)n1` [Example 5260] was tested, and the EC90 was less than 500 nM.
Work on `CSCCCNc1nc(C)c(-c2nc3c(C)nccc3s2)c(N[C@@H]2C[C@H](C(C)(C)O)[C@@H](O)[C@H]2O)n1` [Example 5261] yielded an EC90 of less than 500 nM.
`Cc1nc(NCCC(C)(C)C)nc(N[C@@H]2C[C@H](C(C)(C)O)[C@@H](O)[C@H]2O)c1-c1nc2c(C)nccc2s1` [Example 5262] showed an EC90 of less than 500 nM.
In the case of `COC[C@@H](C)Nc1nc(C)c(-c2nc3c(C)nccc3s2)c(N[C@@H]2C[C@H](C(C)(C)O)[C@@H](OC)[C@H]2OC)n1` [Example 5263], the EC90 is reported as less than 500 nM.
`CO[C@@H]1[C@H](OC)[C@@H](C(C)(C)O)C[C@H]1Nc1nc(NC[C@@H](C)OC)nc(C)c1-c1nc2c(C)nccc2s1` [Example 5264] showed an EC90 of less than 500 nM.
In the case of `CO[C@@H]1[C@H](OC)[C@@H](C(C)(C)O)C[C@H]1Nc1nc(NCC2CC2)nc(C)c1-c1nc2c(C)nccc2s1` [Example 5265], the EC90 is reported as less than 500 nM.
For `CO[C@@H]1[C@H](OC)[C@@H](C(C)(C)O)C[C@H]1Nc1nc(NCc2c(F)cc(F)cc2F)nc(C)c1-c1nc2c(C)nccc2s1` [Example 5266], the EC90 was less than 500 nM.
`CCSCCNc1nc(C)c(-c2nc3c(C)nccc3s2)c(N[C@@H]2C[C@H](C(C)(C)O)[C@@H](OC)[C@H]2OC)n1` [Example 5267] showed an EC90 of less than 500 nM.
`CO[C@@H]1[C@H](OC)[C@@H](C(C)(C)O)C[C@H]1Nc1nc(N)nc(C)c1-c1nc2c(C)nccc2s1` [Example 5268] showed an EC90 of less than 500 nM.
`CCC(O)(CC)[C@H]1C[C@@H](Nc2nc(NCCC3CC3)nc(C)c2-c2nc3c(C)nccc3s2)[C@H](O)[C@@H]1O` [Example 5269] was tested, and the EC90 was 500 to 5000 nM.
In the case of `CCC(O)(CC)[C@H]1C[C@@H](Nc2nc(NCC3(C)CC3)nc(C)c2-c2nc3c(C)nccc3s2)[C@H](O)[C@@H]1O` [Example 5270], the EC90 is reported as less than 500 nM.
With `CCC(O)(CC)[C@H]1C[C@@H](Nc2nc(NC3CCOCC3)nc(C)c2-c2nc3c(C)nccc3s2)[C@H](O)[C@@H]1O` [Example 5271] the EC90 was less than 500 nM.
`CCCCCNc1nc(C)c(-c2nc3c(C)nccc3s2)c(N[C@@H]2C[C@H](C(O)(CC)CC)[C@@H](O)[C@H]2O)n1` [Example 5272] was tested, and the EC90 was less than 500 nM.
`CCC(O)(CC)[C@H]1C[C@@H](Nc2nc(N)nc(C)c2-c2nc3c(C)nccc3s2)[C@H](O)[C@@H]1O` [Example 5273] gave an EC90 of less than 500 nM.
With `COC[C@@H](C)Nc1nc(C)c(-c2nc3c(C)nccc3s2)c(N[C@@H]2C[C@H](C(C)(C)OC)[C@@H](O)[C@H]2O)n1` [Example 5274] the EC90 was less than 500 nM.
Work on `CO[C@H](C)CNc1nc(C)c(-c2nc3c(C)nccc3s2)c(N[C@@H]2C[C@H](C(C)(C)OC)[C@@H](O)[C@H]2O)n1` [Example 5275] yielded an EC90 of less than 500 nM.
Molecule `COC(C)(C)[C@H]1C[C@@H](Nc2nc(NCC3CC3)nc(C)c2-c2nc3c(C)nccc3s2)[C@H](O)[C@@H]1O` [Example 5276] has an EC90 of less than 500 nM.
For `COC(C)(C)[C@H]1C[C@@H](Nc2nc(NCc3c(F)cc(F)cc3F)nc(C)c2-c2nc3c(C)nccc3s2)[C@H](O)[C@@H]1O` [Example 5277], the EC90 was less than 500 nM.
For `CCSCCNc1nc(C)c(-c2nc3c(C)nccc3s2)c(N[C@@H]2C[C@H](C(C)(C)OC)[C@@H](O)[C@H]2O)n1` [Example 5278], the EC90 was less than 500 nM.
`COC(C)(C)[C@H]1C[C@@H](Nc2nc(N)nc(C)c2-c2nc3c(C)nccc3s2)[C@H](O)[C@@H]1O` [Example 5279] gave an EC90 of less than 500 nM.
With `Cc1nc(NCCSc2ccccc2)nc(N[C@@H]2C[C@H](C(C)(C)O)[C@@H](O)[C@H]2O)c1-c1nc2c(C)nccc2s1` [Example 5280] the EC90 was less than 500 nM.
`Cc1nc(NCCS(N)(=O)=O)nc(N[C@@H]2C[C@H](C(C)(C)O)[C@@H](O)[C@H]2O)c1-c1nc2c(C)nccc2s1` [Example 5281] was tested, and the EC90 was 500 to 5000 nM.
`COC[C@@H](C)Nc1nc(C)c(-c2nc3c(C)nccc3s2)c(N[C@@H]2C[C@H](C(C)C)[C@@H](O)[C@H]2O)n1` [Example 5283] gave an EC90 of less than 500 nM.
`Cc1nc(NCC2CC2)nc(N[C@@H]2C[C@H](C(C)C)[C@@H](O)[C@H]2O)c1-c1nc2c(C)nccc2s1` [Example 5284] gave an EC90 of less than 500 nM.
In the case of `Cc1nc(NC2CC2)nc(N[C@@H]2C[C@H](C(C)C)[C@@H](O)[C@H]2O)c1-c1nc2c(C)nccc2s1` [Example 5285], the EC90 is reported as less than 500 nM.
Molecule `Cc1nc(N)nc(N[C@@H]2C[C@H](C(C)C)[C@@H](O)[C@H]2O)c1-c1nc2c(C)nccc2s1` [Example 5286] has an EC90 of less than 500 nM.
Work on `COCCC1(CNc2nc(C)c(-c3nc4c(C)nccc4s3)c(N[C@@H]3C[C@H](C(C)(C)O)[C@@H](O)[C@H]3O)n2)CCOCC1` [Example 5287] yielded an EC90 of less than 500 nM.
`Cc1nc(NCCS(=O)(=O)N(C)C)nc(N[C@@H]2C[C@H](C(C)(C)O)[C@@H](O)[C@H]2O)c1-c1nc2c(C)nccc2s1` [Example 5288] was tested, and the EC90 was less than 500 nM.
`Cc1nc(NCCS(=O)(=O)NC(C)(C)C)nc(N[C@@H]2C[C@H](C(C)(C)O)[C@@H](O)[C@H]2O)c1-c1nc2c(C)nccc2s1` [Example 5289] gave an EC90 of less than 500 nM.
`Cc1nc(NCC2CC2)nc(N[C@@H]2C[C@H](Cc3nccs3)[C@@H](O)[C@H]2O)c1-c1nc2cnccc2s1` [Example 5290] showed an EC90 of less than 500 nM.
For `Cc1nc(NC(C)C2CC(F)(F)C2)nc(N[C@@H]2C[C@H](CO)[C@@H](O)[C@H]2O)c1-c1nc2c(C)nccc2s1` (stereo partly drawn) [Example 5291], the EC90 was less than 500 nM.
For `CO[C@H]1C[C@@H](CNc2nc(C)c(-c3nc4c(C5CC5)nccc4s3)c(N[C@@H]3C[C@H](CO)[C@@H](O)[C@H]3O)n2)C1` [Example 5292], the EC90 was less than 500 nM.
In the case of `CCO[C@H]1C[C@@H](CNc2nc(C)c(-c3nc4c(C5CC5)nccc4s3)c(N[C@@H]3C[C@H](CO)[C@@H](O)[C@H]3O)n2)C1` [Example 5293], the EC90 is reported as less than 500 nM.
`Cc1nc(NCC2CC(C)C2)nc(N[C@@H]2C[C@H](CO)[C@@H](O)[C@H]2O)c1-c1nc2c(C3CC3)nccc2s1` (stereo partly drawn) [Example 5294] gave an EC90 of less than 500 nM.
Molecule `Cc1nc(NCC2CC2)nc(N[C@@H]2C[C@H](c3nccs3)[C@@H](O)[C@H]2O)c1-c1nc2c(C)nccc2s1` [Example 5295] has an EC90 of less than 500 nM.
For `CO[C@H]1C[C@H](CNc2nc(C)c(-c3nc4c(C5CC5)nccc4s3)c(N[C@@H]3C[C@H](CO)[C@@H](O)[C@H]3O)n2)C1` [Example 5296], the EC90 was less than 500 nM.
In the case of `Cc1nc(NCC2CC(F)(F)C2)nc(N[C@@H]2C[C@H](CO)C(O)[C@H]2O)c1-c1nc2c(C3CC3)nccc2s1` (stereo partly drawn) [Example 5297], the EC90 is reported as less than 500 nM.
